Assay results as given in paper PMC9226124, “Macrocycle-stabilization of its interaction with 14-3-3 increases plasma membrane localization and activity of CFTR” (Nature Communications, 2022).
“And” between values parts separate entries of the source, which are not always exact repeats. Identical values can stand only once. Like-named read-outs stand apart in the source and are kept apart here.

Legend:
[1] = target: T1, 3HA-tagged F508del-CFTR in BHK cells (Homo sapiens, UniProt P13569, DEL508-508); experiment: CFTR trafficking assay (surface expression); type: cell-based, hamster; details: for F508del-CFTR surface expression signal (Fig5a): individual replicates
T1 construct: expressed in transfected cells; host or cells: baby hamster kidney (BHK) cells (Carlile et al. 2007)
T1 sequence (P13569 with tags, fused parts or gaps DEL508-508): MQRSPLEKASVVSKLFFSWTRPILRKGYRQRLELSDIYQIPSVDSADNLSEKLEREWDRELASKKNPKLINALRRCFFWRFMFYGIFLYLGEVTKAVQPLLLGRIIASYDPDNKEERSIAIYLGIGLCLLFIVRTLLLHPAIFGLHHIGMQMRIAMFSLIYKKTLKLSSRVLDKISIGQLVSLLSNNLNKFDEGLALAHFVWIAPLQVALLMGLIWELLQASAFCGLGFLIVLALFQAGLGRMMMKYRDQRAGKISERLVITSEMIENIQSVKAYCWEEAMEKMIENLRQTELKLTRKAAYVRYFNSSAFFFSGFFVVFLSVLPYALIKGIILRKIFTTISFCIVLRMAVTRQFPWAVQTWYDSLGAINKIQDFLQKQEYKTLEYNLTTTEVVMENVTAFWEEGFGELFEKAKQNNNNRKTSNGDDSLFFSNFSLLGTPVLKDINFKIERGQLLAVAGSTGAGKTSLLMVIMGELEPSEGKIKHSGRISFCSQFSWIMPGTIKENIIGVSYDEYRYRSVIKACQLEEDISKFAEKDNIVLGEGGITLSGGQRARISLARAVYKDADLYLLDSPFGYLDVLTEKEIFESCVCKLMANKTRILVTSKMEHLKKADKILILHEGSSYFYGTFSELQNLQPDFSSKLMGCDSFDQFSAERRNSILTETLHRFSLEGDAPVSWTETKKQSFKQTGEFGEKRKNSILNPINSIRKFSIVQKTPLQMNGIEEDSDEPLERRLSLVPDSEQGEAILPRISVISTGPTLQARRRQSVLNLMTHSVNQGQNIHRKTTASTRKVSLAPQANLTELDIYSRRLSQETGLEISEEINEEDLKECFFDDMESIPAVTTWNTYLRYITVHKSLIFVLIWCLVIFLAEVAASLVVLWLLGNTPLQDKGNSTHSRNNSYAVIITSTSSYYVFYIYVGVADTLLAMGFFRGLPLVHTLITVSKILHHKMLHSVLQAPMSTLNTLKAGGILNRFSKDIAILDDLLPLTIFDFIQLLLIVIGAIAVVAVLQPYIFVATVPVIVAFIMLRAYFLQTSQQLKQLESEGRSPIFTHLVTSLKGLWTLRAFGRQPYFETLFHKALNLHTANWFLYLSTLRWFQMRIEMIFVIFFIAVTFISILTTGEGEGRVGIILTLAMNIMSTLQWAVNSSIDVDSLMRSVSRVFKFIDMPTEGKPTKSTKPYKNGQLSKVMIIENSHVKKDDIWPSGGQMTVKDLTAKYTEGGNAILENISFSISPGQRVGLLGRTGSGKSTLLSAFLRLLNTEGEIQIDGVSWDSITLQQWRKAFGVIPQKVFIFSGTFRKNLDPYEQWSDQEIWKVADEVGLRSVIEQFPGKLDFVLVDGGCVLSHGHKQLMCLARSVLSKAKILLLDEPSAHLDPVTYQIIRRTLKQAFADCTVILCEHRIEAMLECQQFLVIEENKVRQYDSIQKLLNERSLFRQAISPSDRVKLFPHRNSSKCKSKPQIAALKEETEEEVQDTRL
Procedure: Twelve (12) validated hit compounds from the initial screening and focused validation library were tested for their effect on F508del-CFTR trafficking. Baby hamster kidney (BHK) cells expressing 3HA-tagged F508del-CFTR were treated for 24 h with 10 μM compound. After fixation of the cells, a combination of mouse monoclonal anti-HA antibody and anti-mouse IgG conjugated with FITC was used to detect F508del-CFTR that had trafficked to the plasma membrane as described previously. […] Additionally, a fluorescence imaging plate reader (FLIPR) Membrane Potential (FMP) assay was performed. This assay measures real-time membrane potential changes associated with ion channel activation and ion transporter proteins. F508del-CFTR expressing BHK cells were incubated for 24 h with 20 μM compound before treatment with the potentiator genistein, FMP dye, and activator forskolin. The fluorescence intensity is thus a measure for the function of the CFTR protein in the plasma membrane of these cells. The F508del-CFTR corrector VX-809 (lumacaftor) and the triple combination Trikafta® were used as positive controls in this assay. […] Another cellular assay was performed with the Ussing Chamber, which detects and quantifies transport of ions across epithelial tissue. F508del-CFTR expressing cystic fibrosis epithelial (CFBE) cells were treated for 18 h with 20 μM CY007424. After forskolin and genistein stimulation, the short-circuit current of the cells was measured.
Fig. 5 Cellular activity of macrocycles stabilizing the 14-3-3/CFTR PPI. a Surface expression of 3HA-tagged F508del-CFTR in BHK cells incubated for 24 h with 10 μM compound and treated with mouse monoclonal anti-HA antibody and anti-mouse IgG conjugated with FITC (n = 4 or n = 3 biological replicates, bars represent the mean). b, c FLIPR Membrane Potential (FMP) assay of F508del-CFTR expressing BHK cells treated for 24 h with the macrocycles (b, n = 6 biological replicates, bars represent the mean) or with CY007424 and/or VX-809 or Trikafta®, with and without CFTR inhibitor INH172 (c, n = 4 biological replicates, bars represent the mean). d Using chamber experiment of F508del-CFTR expressing CFBE cells treated for 18 h with CY007424, VX-809, or Trikafta® or in combinations. CFTR activity is assayed by measurement of short-circuit current of cells after stimulation by forskolin and the potentiator genistein (n = 3 or n = 6 biological replicates, bars represent the mean). Source data are provided as a Source Data file.
The trafficking assay was performed as previously described by Carlile et al.[21]. In brief, 3HA-tagged F508del-CFTR expressing baby hamster kidney (BHK) cells (cells earlier described by Carlile et. al. 2007)[21] were seeded in 96-well plates (Corning half area, black-sided, clear bottom) at 15,000 cells per well. After 24 h incubation at 37 °C, the cells were treated with 10 μM of compound for 24 h (final DMSO concentration 1% v/v). The cells were fixated with 4% paraformaldehyde, washed with PBS, and then blocked with fetal bovine serum (5% in PBS). Mouse monoclonal anti-HA antibody (H9658 Sigma, 1:150 dilution in PBS) was incubated overnight, and, after three washes with PBS, the background fluorescence was measured in a plate reader (488 nm excitation, 510 nm emission). The secondary antibody anti-mouse IgG conjugated with FITC (F5262 Sigma, 1:100 dilution in PBS) was incubated for 1 h, the cells were washed three times with PBS and analyzed in the plate reader again. Background fluorescence was subtracted from the signal, after which the signal was normalized to the DMSO control and wt-CFTR expressing cells.

[2] = target: T2, 14-3-3β/CFTRpS753pS768 complex (Homo sapiens, UniProt P13569+P31946); experiment: Dose-response fluorescence polarization (FP) assay, compound titration; type: binding; details: for EC50: 14-3-3β 10 μM, labeled CFTRpS753pS768 100 nM; for FP signal: With 14-3-3
T2 construct: His6 (cleaved yes); made in house; peptide synthetic
T2 sequence (P31946 whole entry): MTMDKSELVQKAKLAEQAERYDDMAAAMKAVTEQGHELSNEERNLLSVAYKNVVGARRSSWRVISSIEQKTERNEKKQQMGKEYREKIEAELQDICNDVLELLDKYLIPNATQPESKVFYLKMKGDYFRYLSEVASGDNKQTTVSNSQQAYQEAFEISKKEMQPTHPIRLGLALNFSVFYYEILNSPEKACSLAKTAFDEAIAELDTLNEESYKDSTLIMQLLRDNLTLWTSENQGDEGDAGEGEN
T2 sequence (P13569 747-774 limits assumed): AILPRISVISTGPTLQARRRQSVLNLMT
Procedure: The 14-3-3β concentration used for the FP screening assay was 10 μM (dashed line). c HTS FP assay of the Cyclenium library. The samples contain 100 nM of FITC-CFTR_pS753pS768 peptide, 10 μM 14-3-3β, and 50 μM compound. FC-A (100 µM) was added as a positive control and DMSO as the negative control. Hit compounds are defined as a polarization increase which is higher than 20% of the response of FC-A. Red squares are compounds that appeared positive in the negative control without 14-3-3. […] Background polarization was subtracted from all values, n = 3 technical replicates. Compounds selected for further analysis are indicated with an asterisk. e Polarization in the absence of 14-3-3. […] Source data are provided as a Source Data file. […]
The FITC-labeled peptides were dissolved in FP buffer (10 mM HEPES pH 7.4, 150 mM NaCl, 0.1% Tween20, 1 mg/mL BSA) to a final concentration of 100 nM or 10 nM. For the dose-response assays, a 14-3-3β concentration of 10 μM was used while titrating the compounds in a two-times dilution series and, for the other assays, a dilution series of 14-3-3β was made with constant concentration of compound. The dilution series were made in 384 Corning Black Round Bottom well plates and their polarization was measured with a Tecan Infinite F500 plate reader (ex. = 485 nm, em. = 535 nm). The method of fitting of the curves was: “log(agonist) vs. response – Variable slope (four parameters)” from GraphPad Prism. The equation is Y = Bottom + (Top-Bottom)/(1 + 10^((LogEC50-X)*HillSlope)).

Row | SMILES | F508del-CFTR surface expression signal (Fig5a) [1] | FP signal ([2]; compound 476.8 pM) | FP signal ([2]; compound 953.7 pM) | FP signal ([2]; compound 1.90735e-9 M) | FP signal ([2]; compound 3.8147e-9 M) | FP signal ([2]; compound 7.6294e-9 M) | FP signal ([2]; compound 1.52588e-8 M) | FP signal ([2]; compound 3.05176e-8 M) | FP signal ([2]; compound 6.10352e-8 M) | FP signal ([2]; compound 1.2207e-7 M) | FP signal ([2]; compound 2.44141e-7 M) | FP signal ([2]; compound 4.88281e-7 M) | FP signal ([2]; compound 9.76563e-7 M) | FP signal ([2]; compound 1.95313e-6 M) | FP signal ([2]; compound 3.90625e-6 M) | FP signal ([2]; compound 7.8125e-6 M) | FP signal ([2]; compound 1.5625e-5 M) | FP signal ([2]; compound 3.125e-5 M) | FP signal ([2]; compound 6.25e-5 M) | FP signal ([2]; compound 0.000125 M) | also measured
1 | N=C(N)NCCCC1NC(=O)C(CCCCN)NCc2ccccc2Sc2ccccc2CNC(=O)C(Cc2ccc(O)cc2)NC1=O (stereo not shown) [CY001951] | 85.2534 and 218.237 and 180.048 and 282.523 | 3 | 3 | 4 | 4 | 3 | 5 | 4 | 5 | 4 | 4 | 5 | 6 | 6 | 6 | 7 | 9 | 16 | 33 | 73 | EC50 ([2]; read-out: EC50): 267 µM; FP signal ([2]; compound 0.00025 M): 143; FP signal ([2]; compound 0.0005 M): 201; FP signal ([2]; compound 0.001 M): 252
2 | NCCCCC1NCc2ccccc2Sc2ccccc2CNC(=O)C(Cc2cccc(Cl)c2)NC(=O)C(Cc2ccc(O)cc2)NC1=O (stereo not shown) [CY007288] | 916.74 and 800.091 and 871.094 and 781.005 | 6 | 6 | 5 | 4 | 7 | 6 | 5 | 4 | 4 | 5 | 6 | 6 | 5 | 8 | 9 | 16 | 30 | 55 | 97 | EC50 [2]: False positive; FP signal ([2]; compound 0.00025 M): 149; FP signal ([2]; compound 0.0005 M): 194; FP signal ([2]; compound 0.001 M): 224
3 | NCCCC1NCc2ccccc2Sc2ccccc2CNC(=O)C(Cc2c[nH]c3ccccc23)NC(=O)C(Cc2ccccc2)NC1=O (stereo not shown) [CY007345] | -42.2555 and -20.6074 and 61.7766 and 72.7311 | 5 | 5 | 4 | 7 | 5 | 4 | 4 | 7 | 6 | 5 | 6 | 7 | 8 | 14 | 28 | 52 | 90 | 137 | 191 | EC50 [2]: False positive; FP signal ([2]; compound 0.00025 M): 224; FP signal ([2]; compound 0.0005 M): 238; FP signal ([2]; compound 0.001 M): 248
4 | N=C(N)NCCCC1NCc2ccccc2Sc2ccccc2CNC(=O)C(Cc2ccc(O)cc2)NC(=O)C(CCCN)NC1=O (stereo not shown) [CY007424] | 1698.78 and 1774.35 and 1725.92 and 1889.17 | 4 | 5 | 5 | 7 | 4 | 7 | 6 | 5 | 5 | 7 | 7 | 7 | 6 | 12 | 27 | 52 | 122 | 193 | 244 | F508del-CFTR trafficking towards the plasma membrane ([1]; BHK cells, 24 h, 10 μM compound): strongest increase; EC50 ([2]; read-out: EC50): 36.1 µM and 36 µM; FP signal ([2]; compound 0.00025 M): 263; FP signal ([2]; compound 0.0005 M): 257; FP signal ([2]; compound 0.001 M): 271
5 | N=C(N)NCCCC1NC(=O)C(CCC(N)=O)NC(=O)C(CCCNC(=N)N)NC(=O)C2CCCN2Cc2cccc(c2)-c2ccccc2CNC1=O (stereo not shown) [CY007455] | 15.0857 and 101.743 and 158.532 and 44.3829 | 5 | 6 | 3 | 4 | 5 | 4 | 4 | 5 | 7 | 6 | 4 | 4 | 5 | 9 | 8 | 15 | 26 | 53 | 107 | EC50 ([2]; read-out: EC50): 170 µM; FP signal ([2]; compound 0.00025 M): 170; FP signal ([2]; compound 0.0005 M): 209; FP signal ([2]; compound 0.001 M): 244
6 | N=C(N)NCCCC1NC(=O)C(CCC(N)=O)NC(=O)C(CCCNC(=N)N)NC(=O)C2CCCN2Cc2cccc(c2)-c2ccccc2CNC1=O (stereo not shown) [CY007458] | 354.117 and 244.376 and 379.817 and 293.603 | 6 | 5 | 4 | 5 | 7 | 4 | 6 | 5 | 4 | 5 | 6 | 6 | 5 | 8 | 11 | 15 | 33 | 65 | 124 | EC50 ([2]; read-out: EC50): 151 µM; FP signal ([2]; compound 0.00025 M): 179; FP signal ([2]; compound 0.0005 M): 221; FP signal ([2]; compound 0.001 M): 252
